From PMC12903857
Values joined by “and” are separate entries in the source; they are usually repeats but may differ in a detail not shown here. Equal entries are not always repeated.

How the values were obtained:
[1] = molecular target: 14-3-3σ/TSC2 (Homo sapiens, UniProt P31947); assay: FA compound titration follow-up from selectivity panel
Experimental: (§1) concentraton (50 μM, maximum eﬀect) was used.
giving the anisotropy change (ΔAU ) .
sele tme: 0 ms, gain: optmal).

[2] = molecular target: T1, 14-3-3σ/C-RAF259 (Homo sapiens, UniProt P31947); assay: as above
Experimental: as §1
giving the anisotropy change (ΔAU ) .
sele tme: 0 ms, gain: optmal).

[3] = molecular target: 14-3-3σ/KC1A (Homo sapiens, UniProt P31947); assay: as above
Chain of 14-3-3σ/KC1A (P31947 whole entry, other chains not shown): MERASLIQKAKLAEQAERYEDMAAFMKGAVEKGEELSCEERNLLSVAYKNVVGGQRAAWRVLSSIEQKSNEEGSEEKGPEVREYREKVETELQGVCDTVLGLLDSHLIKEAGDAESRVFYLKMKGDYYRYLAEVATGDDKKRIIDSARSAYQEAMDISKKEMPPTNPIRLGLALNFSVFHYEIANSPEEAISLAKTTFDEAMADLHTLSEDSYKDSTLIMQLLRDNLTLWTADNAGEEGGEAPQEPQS
Experimental: as §1
giving the anisotropy change (ΔAU ) .
sele tme: 0 ms, gain: optmal).

[4] = molecular target: 14-3-3σ/TAZ (Homo sapiens, UniProt P31947); assay: as above
Chain of 14-3-3σ/TAZ (P31947 whole entry, other chains not shown): as above
Experimental: as §1
giving the anisotropy change (ΔAU ) .
sele tme: 0 ms, gain: optmal).

[5] = molecular target: 14-3-3σ/B-RAF (Homo sapiens, UniProt P31947)
Chain of 14-3-3σ/B-RAF (P31947 whole entry, other chains not shown): as above

[6] = molecular target: 14-3-3σ/A-RAF (Homo sapiens, UniProt P31947)
Chain of 14-3-3σ/A-RAF (P31947 whole entry, other chains not shown): as above

[7] = molecular target: T1, 14-3-3σ/C-RAF259; assay: Fluorescence anisotropy (FA) compound titration; format: binding; conditions: 10 nM C-RAF259-FAM 10-mer, 5 μΜ 14-3-3σ, overnight; read-out: Compound titrations EC50 value C-RAF259
[8] = molecular target: 14-3-3σ/SOS1 (Homo sapiens, UniProt P31947); assay: FA compound titration follow-up from selectivity panel
Chain of 14-3-3σ/SOS1 (P31947 whole entry, other chains not shown): as above
Experimental: as §1
giving the anisotropy change (ΔAU ) .
sele tme: 0 ms, gain: optmal).

[9] = system: pERK; assay: Lumit immunoassay for pERK with 14-3-3 C38N mutant; format: cell-based; conditions: HEK293T
[10] = system: N-RAS Q61L/C-RAF; conditions: HEK293T; 100% = DMSO mBU, 0% = N-RAS/C-RAF R89L
[11] = molecular target: T2, 14-3-3σ/C-RAF (Homo sapiens, UniProt P31947); assay: cell-based
Target sequence in this assay (P31947 whole entry): as the sequence (P31947 whole entry, other chains not shown) above
Target sequence in this assay (P04049 whole entry partner): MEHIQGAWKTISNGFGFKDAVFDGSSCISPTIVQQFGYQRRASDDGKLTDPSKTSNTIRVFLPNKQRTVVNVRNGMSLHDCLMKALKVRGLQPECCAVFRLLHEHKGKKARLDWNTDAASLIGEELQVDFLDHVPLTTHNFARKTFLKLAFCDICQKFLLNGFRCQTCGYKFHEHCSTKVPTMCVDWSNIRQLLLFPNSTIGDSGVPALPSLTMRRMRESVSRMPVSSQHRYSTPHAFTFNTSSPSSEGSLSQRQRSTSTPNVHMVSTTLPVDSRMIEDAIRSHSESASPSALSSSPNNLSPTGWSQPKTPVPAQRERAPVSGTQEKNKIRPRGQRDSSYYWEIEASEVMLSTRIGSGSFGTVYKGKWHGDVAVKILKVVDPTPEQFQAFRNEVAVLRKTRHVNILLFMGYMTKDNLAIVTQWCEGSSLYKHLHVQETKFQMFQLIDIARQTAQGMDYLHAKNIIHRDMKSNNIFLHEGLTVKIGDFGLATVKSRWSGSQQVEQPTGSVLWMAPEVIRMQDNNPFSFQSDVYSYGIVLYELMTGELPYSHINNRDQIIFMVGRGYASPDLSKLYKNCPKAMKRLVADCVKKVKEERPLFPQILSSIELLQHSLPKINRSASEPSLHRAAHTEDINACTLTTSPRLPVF
Experimental: Stabilization of the interaction with a molecular glue was expected to lead to an increase in the intensity of the BRET signal.
Both cell lines were grown in
All compound treatments were 24 hours.
Brieﬂy, HEK293T cells were

[12] = system: B-RAF/C-RAF; assay: NanoBRET for heterodimer formation B-RAF/C-RAF
[13] = system: pERK; assay: Lumit immunoassay for pERK levels in HEK293T cells; format: cell-based; conditions: Homo sapiens, HEK-293T; HEK293T, 14-3-3σ and C-RAF transfected, 24 h, EGF stimulation
[14] = system: C-RAF/C-RAF; conditions: with N-RAS Q61L; 100% = DMSO mBU
Experimental: We aimed to study potential effects of the molecular glues on RAF-dimer formation using a NanoBRET assay.
All compound treatments were 24 hours.

[15] = system: 80 peptides representing a diverse set of 14-3-3 clients; assay: FA selectivity panel, single point; conditions: 10.5 μM compound, 100 nM client peptides, overnight; hit = change in anisotropy of more than 15 units
Experimental: as §1
giving the anisotropy change (ΔAU ) .
sele tme: 0 ms, gain: optmal).

[16] = system: A-RAF/C-RAF; assay: NanoBRET for heterodimer formation A-RAF/C-RAF
[17] = molecular target: T2, 14-3-3σ/C-RAF
Target sequence in this assay (P31947 whole entry, other chains not shown): as the sequence (P31947 whole entry, other chains not shown) above

[18] = 14-3-3σ covalently bound to compound, Replicate 1 and 2

T1 sequence (P31947 whole entry, other chains not shown): as above
Chain of 14-3-3σ/TSC2 (P31947 whole entry, other chains not shown): as above

O=C(CCl)NCC1CCN(S(=O)(=O)c2ccc(I)cc2)CC1 [Compound 23]
EC50 [1]: 19.2 µM
EC50 [2]: 5.1 µM
EC50 [3]: 38.1 µM
EC50 [4]: 11.7 µM
ka, single replicates, B-RAF 12-mer [5, 18]: 9.53e+06 M⁻¹ s⁻¹ and 8.53e+06 M⁻¹ s⁻¹
kd, single replicates, B-RAF 12-mer [5, 18]: 0.0572 s⁻¹ and 0.0569 s⁻¹
affinity increase, B-RAF ([5]; vs binary interaction): 400 fold
ka, single replicates, A-RAF 12-mer [6, 18]: 1.25e+07 M⁻¹ s⁻¹ and 1.02e+07 M⁻¹ s⁻¹
kd, single replicates, A-RAF 12-mer [6, 18]: 0.0189 s⁻¹ and 0.0196 s⁻¹
affinity increase, A-RAF ([6]; vs binary interaction): 1000 fold
EC50 [7]: 1000 ± 500 nM
EC50 [8]: 24.2 µM
effect on pERK with the C38N mutant [9]: No effect
reduction of the N-RAS Q61L/C-RAF interaction [10]: 75%
EC50 [11]: 180 nM
decrease of the B-RAF/C-RAF dimer [12]: 15%
IC50 [13]: 4.4 µM
decrease in C-RAF homodimer formation [14]: 47%
clients emerged as hits [15]: four
decrease of the A-RAF/C-RAF interaction [16]: 23%
ka, single replicates, C-RAF 12-mer [17, 18]: 1.12e+07 M⁻¹ s⁻¹ and 1.09e+07 M⁻¹ s⁻¹
kd, single replicates, C-RAF 12-mer [17, 18]: 0.0131 s⁻¹ and 0.0133 s⁻¹
affinity increase, C-RAF ([17]; vs binary interaction): 2000 fold
